Measured values taken from the NIST ThermoML archive (doi:10.1016/j.jct.2003.09.013).
Values joined by “and” are separate entries in the source; they are usually repeats but may differ in a detail not shown here. Equal values may be shown once.

Test: mn = molality of the nth substance listed, in mol/kg
Details: 350 kPa, Liquid; for molar volume: Vibrating tube method; for apparent molar heat capacity: Extra sensitive DSC

O=[N+]([O-])[O-].O=[N+]([O-])[O-].[Pb+2] [lead(II) nitrate] + O
Details | apparent molar heat capacity [J/K/mol] | apparent molar volume | molar volume
278.15 K, m1 = 0.01959 | – | 3.11e-05 m3/mol | 3.11e-05 m3/mol
278.15 K, m1 = 0.01983 | – | 3.8e-05 m3/mol | 3.8e-05 m3/mol
278.15 K, m1 = 0.02999 | – | 3.7e-05 m3/mol and 3.36e-05 m3/mol | 3.7e-05 m3/mol and 3.36e-05 m3/mol
278.15 K, m1 = 0.04862 | – | 3.8e-05 m3/mol | 3.8e-05 m3/mol
278.15 K, m1 = 0.05035 | – | 3.73e-05 m3/mol | 3.73e-05 m3/mol
278.15 K, m1 = 0.1004 | – | 3.52e-05 m3/mol and 4.01e-05 m3/mol | 4.01e-05 m3/mol and 3.52e-05 m3/mol
278.15 K, m1 = 0.2435 | – | 3.781e-05 m3/mol | 3.781e-05 m3/mol
278.15 K, m1 = 0.392 | – | 3.95e-05 m3/mol | 3.95e-05 m3/mol
278.15 K, m1 = 0.4885 | – | 4.08e-05 m3/mol | 4.08e-05 m3/mol
283.15 K, m1 = 0.01959 | – | 3.4e-05 m3/mol | 3.4e-05 m3/mol
283.15 K, m1 = 0.01983 | – | 3.8e-05 m3/mol | 3.8e-05 m3/mol
283.15 K, m1 = 0.02999 | – | 3.9e-05 m3/mol and 3.62e-05 m3/mol | 3.9e-05 m3/mol and 3.62e-05 m3/mol
283.15 K, m1 = 0.04862 | – | 3.9e-05 m3/mol | 3.9e-05 m3/mol
283.15 K, m1 = 0.05035 | – | 3.93e-05 m3/mol | 3.93e-05 m3/mol
283.15 K, m1 = 0.1004 | – | 4.14e-05 m3/mol and 3.73e-05 m3/mol | 4.14e-05 m3/mol and 3.73e-05 m3/mol
283.15 K, m1 = 0.2435 | – | 3.976e-05 m3/mol | 3.976e-05 m3/mol
283.15 K, m1 = 0.392 | – | 4.126e-05 m3/mol | 4.126e-05 m3/mol
283.15 K, m1 = 0.4885 | 4.5 | 4.243e-05 m3/mol | 4.243e-05 m3/mol
288.15 K, m1 = 0.01959 | – | 3.508e-05 m3/mol | 3.508e-05 m3/mol
288.15 K, m1 = 0.01983 | – | 3.8e-05 m3/mol | 3.8e-05 m3/mol
288.15 K, m1 = 0.02999 | – | 3.9e-05 m3/mol and 3.71e-05 m3/mol | 3.9e-05 m3/mol and 3.71e-05 m3/mol
288.15 K, m1 = 0.04862 | – | 3.96e-05 m3/mol | 3.96e-05 m3/mol
288.15 K, m1 = 0.05035 | – | 4.05e-05 m3/mol | 4.05e-05 m3/mol
288.15 K, m1 = 0.1004 | – | 4.12e-05 m3/mol and 3.851e-05 m3/mol | 4.12e-05 m3/mol and 3.851e-05 m3/mol
288.15 K, m1 = 0.2435 | – | 4.073e-05 m3/mol | 4.073e-05 m3/mol
288.15 K, m1 = 0.392 | – | 4.246e-05 m3/mol | 4.246e-05 m3/mol
288.15 K, m1 = 0.4885 | 12.8 | 4.323e-05 m3/mol | 4.323e-05 m3/mol
293.15 K, m1 = 0.4885 | 18.6 | – | –
298.15 K, m1 = 0.01959 | – | 3.86e-05 m3/mol | 3.86e-05 m3/mol
298.15 K, m1 = 0.01983 | – | 4.1e-05 m3/mol | 4.1e-05 m3/mol
298.15 K, m1 = 0.02999 | – | 4.19e-05 m3/mol and 3.835e-05 m3/mol | 4.19e-05 m3/mol and 3.835e-05 m3/mol
298.15 K, m1 = 0.04862 | – | 4.22e-05 m3/mol | 4.22e-05 m3/mol
298.15 K, m1 = 0.05035 | – | 4.377e-05 m3/mol | 4.377e-05 m3/mol
298.15 K, m1 = 0.1004 | – | 4.33e-05 m3/mol and 4.134e-05 m3/mol | 4.33e-05 m3/mol and 4.134e-05 m3/mol
298.15 K, m1 = 0.2435 | – | 4.368e-05 m3/mol | 4.368e-05 m3/mol
298.15 K, m1 = 0.392 | 2.9 | 4.54e-05 m3/mol | 4.54e-05 m3/mol
298.15 K, m1 = 0.4885 | 22.3 | 4.567e-05 m3/mol | 4.567e-05 m3/mol
303.15 K, m1 = 0.392 | 6 | – | –
303.15 K, m1 = 0.4885 | 24.9 | – | –
308.15 K, m1 = 0.01959 | – | 4.027e-05 m3/mol | 4.027e-05 m3/mol
308.15 K, m1 = 0.01983 | – | 4.04e-05 m3/mol | 4.04e-05 m3/mol
308.15 K, m1 = 0.02999 | – | 4.2e-05 m3/mol and 3.7e-05 m3/mol | 4.2e-05 m3/mol and 3.7e-05 m3/mol
308.15 K, m1 = 0.04862 | – | 4.27e-05 m3/mol | 4.27e-05 m3/mol
308.15 K, m1 = 0.05035 | – | 4.631e-05 m3/mol | 4.631e-05 m3/mol
308.15 K, m1 = 0.1004 | – | 4.39e-05 m3/mol and 4.262e-05 m3/mol | 4.39e-05 m3/mol and 4.262e-05 m3/mol
308.15 K, m1 = 0.2435 | – | 4.56e-05 m3/mol | 4.56e-05 m3/mol
308.15 K, m1 = 0.392 | 8.2 | 4.698e-05 m3/mol | 4.698e-05 m3/mol
308.15 K, m1 = 0.4885 | 26.6 | 4.739e-05 m3/mol | 4.739e-05 m3/mol
313.15 K, m1 = 0.392 | 9.6 | – | –
313.15 K, m1 = 0.4885 | 27.7 | – | –
318.15 K, m1 = 0.01959 | – | 4.413e-05 m3/mol | 4.413e-05 m3/mol
318.15 K, m1 = 0.01983 | – | 4.13e-05 m3/mol | 4.13e-05 m3/mol
318.15 K, m1 = 0.02999 | – | 4.23e-05 m3/mol and 3.71e-05 m3/mol | 4.23e-05 m3/mol and 3.71e-05 m3/mol
318.15 K, m1 = 0.04862 | – | 4.32e-05 m3/mol | 4.32e-05 m3/mol
318.15 K, m1 = 0.05035 | – | 4.763e-05 m3/mol | 4.763e-05 m3/mol
318.15 K, m1 = 0.1004 | – | 4.49e-05 m3/mol and 4.36e-05 m3/mol | 4.49e-05 m3/mol and 4.36e-05 m3/mol
318.15 K, m1 = 0.2435 | – | 4.709e-05 m3/mol | 4.709e-05 m3/mol
318.15 K, m1 = 0.392 | 10.3 | 4.824e-05 m3/mol | 4.824e-05 m3/mol
318.15 K, m1 = 0.4885 | 27.8 | 4.881e-05 m3/mol | 4.881e-05 m3/mol
323.15 K, m1 = 0.392 | 10.5 | – | –
323.15 K, m1 = 0.4885 | 27.8 | – | –
328.15 K, m1 = 0.01959 | – | 4.522e-05 m3/mol | 4.522e-05 m3/mol
328.15 K, m1 = 0.01983 | – | 4.163e-05 m3/mol | 4.163e-05 m3/mol
328.15 K, m1 = 0.02999 | – | 4.215e-05 m3/mol and 3.58e-05 m3/mol | 4.215e-05 m3/mol and 3.58e-05 m3/mol
328.15 K, m1 = 0.04862 | – | 4.365e-05 m3/mol | 4.365e-05 m3/mol
328.15 K, m1 = 0.05035 | – | 4.871e-05 m3/mol | 4.871e-05 m3/mol
328.15 K, m1 = 0.1004 | – | 4.523e-05 m3/mol and 4.39e-05 m3/mol | 4.523e-05 m3/mol and 4.39e-05 m3/mol
328.15 K, m1 = 0.2435 | – | 4.806e-05 m3/mol | 4.806e-05 m3/mol
328.15 K, m1 = 0.392 | 10.3 | 4.911e-05 m3/mol | 4.911e-05 m3/mol
328.15 K, m1 = 0.4885 | 27.3 | 4.978e-05 m3/mol | 4.978e-05 m3/mol
333.15 K, m1 = 0.392 | 10 | – | –
333.15 K, m1 = 0.4885 | 26.8 | – | –
338.15 K, m1 = 0.01959 | – | 4.5e-05 m3/mol | 4.5e-05 m3/mol
338.15 K, m1 = 0.01983 | – | 4.114e-05 m3/mol | 4.114e-05 m3/mol
338.15 K, m1 = 0.02999 | – | 4.265e-05 m3/mol and 3.58e-05 m3/mol | 4.265e-05 m3/mol and 3.58e-05 m3/mol
338.15 K, m1 = 0.04862 | – | 4.42e-05 m3/mol | 4.42e-05 m3/mol
338.15 K, m1 = 0.05035 | – | 4.942e-05 m3/mol | 4.942e-05 m3/mol
338.15 K, m1 = 0.1004 | – | 4.599e-05 m3/mol and 4.45e-05 m3/mol | 4.599e-05 m3/mol and 4.45e-05 m3/mol
338.15 K, m1 = 0.2435 | – | 4.89e-05 m3/mol | 4.89e-05 m3/mol
338.15 K, m1 = 0.392 | 9.1 | 4.981e-05 m3/mol | 4.981e-05 m3/mol
338.15 K, m1 = 0.4885 | 25.9 | 5.059e-05 m3/mol | 5.059e-05 m3/mol
343.15 K, m1 = 0.392 | 8 | – | –
343.15 K, m1 = 0.4885 | 24.7 | – | –
348.15 K, m1 = 0.01959 | – | 4.33e-05 m3/mol | 4.33e-05 m3/mol
348.15 K, m1 = 0.02999 | – | 3.57e-05 m3/mol | 3.57e-05 m3/mol
348.15 K, m1 = 0.05035 | – | 4.93e-05 m3/mol | 4.93e-05 m3/mol
348.15 K, m1 = 0.1004 | – | 4.662e-05 m3/mol and 4.47e-05 m3/mol | 4.662e-05 m3/mol and 4.47e-05 m3/mol
348.15 K, m1 = 0.2435 | – | 4.92e-05 m3/mol | 4.92e-05 m3/mol
348.15 K, m1 = 0.392 | 6.7 | 5.034e-05 m3/mol | 5.034e-05 m3/mol
348.15 K, m1 = 0.4885 | 23.3 | 5.112e-05 m3/mol | 5.112e-05 m3/mol
353.15 K, m1 = 0.392 | 5.2 | – | –
353.15 K, m1 = 0.4885 | 22 | – | –
358.15 K, m1 = 0.01959 | – | 4.397e-05 m3/mol | 4.397e-05 m3/mol
358.15 K, m1 = 0.02999 | – | 3.55e-05 m3/mol | 3.55e-05 m3/mol
358.15 K, m1 = 0.05035 | – | 4.866e-05 m3/mol | 4.866e-05 m3/mol
358.15 K, m1 = 0.1004 | – | 4.48e-05 m3/mol and 4.513e-05 m3/mol | 4.48e-05 m3/mol and 4.513e-05 m3/mol
358.15 K, m1 = 0.2435 | – | 4.929e-05 m3/mol | 4.929e-05 m3/mol
358.15 K, m1 = 0.392 | 3.8 | 5.016e-05 m3/mol | 5.016e-05 m3/mol
358.15 K, m1 = 0.4885 | 20.5 | 5.11e-05 m3/mol | 5.11e-05 m3/mol
363.15 K, m1 = 0.392 | 2.1 | – | –
363.15 K, m1 = 0.4885 | 18.8 | – | –
368.15 K, m1 = 0.01959 | – | 4.451e-05 m3/mol | 4.451e-05 m3/mol
368.15 K, m1 = 0.02999 | – | 3.49e-05 m3/mol | 3.49e-05 m3/mol
368.15 K, m1 = 0.05035 | – | 4.751e-05 m3/mol | 4.751e-05 m3/mol
368.15 K, m1 = 0.1004 | – | 4.02e-05 m3/mol and 4.44e-05 m3/mol | 4.02e-05 m3/mol and 4.44e-05 m3/mol
368.15 K, m1 = 0.2435 | – | 4.902e-05 m3/mol | 4.902e-05 m3/mol
368.15 K, m1 = 0.392 | – | 4.883e-05 m3/mol | 4.883e-05 m3/mol
368.15 K, m1 = 0.4885 | 16.9 | 5.055e-05 m3/mol | 5.055e-05 m3/mol
373.15 K, m1 = 0.4885 | 14.8 | – | –
378.15 K, m1 = 0.4885 | 12.1 | – | –
383.15 K, m1 = 0.4885 | 9.5 | – | –
388.15 K, m1 = 0.4885 | 6.8 | – | –
393.15 K, m1 = 0.4885 | 3.2 | – | –
